Measurements reported in article PMC5362113 (Journal of medicinal chemistry, 2016).
Where “and” joins values, the source holds several entries; their conditions need not be identical. Equal entries are not always repeated.

Experiments:
[1] = In vitro liver microsome assay, mouse; format: in vitro ADME; settings: pooled liver microsomes
[2] = In vitro liver microsome assay, human; format: in vitro ADME; settings: pooled liver microsomes
[3] = system: T. b. brucei (strain BF427); assay: T. brucei growth inhibition assay; format: cell-based; settings: T. b. brucei BF427, 48 h, Alamar Blue
[4] = system: HepG2 cells (human hepatocellular carcinoma); assay: Cytotoxicity in mammalian cells, HepG2; format: cell-based; settings: human hepatocytes, 48 h, growth inhibition by 50%
[5] = Mouse oral pharmacokinetics; format: in vivo; settings: mice, 50 mg/kg oral, Tween 80/EtOH/DMSO vehicle
[6] = system: CRL-8155 (human lymphoblasts); assay: Cytotoxicity in mammalian cells, CRL-8155; settings: 48 h, growth inhibition by 50%
[7] = Brain:plasma compound concentration measurements in mice, 1 h post ip dose; format: in vivo; settings: single ip dose 5 mg/kg, 1 h postdose
[8] = Efficacy PK in acute model; format: in vivo, mice; settings: 50 mg/kg po b.i.d., prior to dose 7 (predose)
[9] = Efficacy PK in chronic model; format: in vivo, mice; settings: 50 mg/kg po b.i.d., prior to dose 15 (predose)
[10] = Brain time-course experiment of compound 57 after oral dosing; format: in vivo; settings: mice, single oral dose 50 mg/kg

O=C(Nc1ccc2oc(-c3ccccc3)nc2c1)c1ccccc1 [Compound 30]
half-life at 1.5 μM [1]: 10 to 20 min | half-life at 1.5 μM [2]: ≥ 60 min

O=C(Nc1ccc2oc(-c3ccccc3)nc2c1)N1CCCCC1 [Compound 32]
half-life at 1.5 μM [1]: 10 to 20 min | half-life at 1.5 μM [2]: ≥ 60 min

O=C(Nc1ccc2sc(-c3ccccc3)nc2c1)N1CCCC1 [Compound 38]
half-life at 1.5 μM [1]: > 20 min

O=C(Nc1ccc2sc(-c3ccccc3)nc2c1)N1CCCCC1 [Compound 40]
half-life at 1.5 μM [1]: > 20 min

O=C(Nc1ccc2sc(-c3cccc(F)c3)nc2c1)N1CCN(C(=O)Nc2ccc3sc(-c4cccc(F)c4)nc3c2)CC1 [Compound 49]
T. brucei EC50 [3]: No activity was detected

O=C(Nc1ccc2sc(-c3ccc(F)c(F)c3)nc2c1)N1CC[C@H](F)C1 [Compound 57, (S)-2-(3,4-Difluorophenyl)-5-(3-fluoro-N-pyrrolidylamido)-benzothiazole]
HepG2 EC50 [4]: no detectable toxicity | percent of Cmax remaining at the 24 h time point [5]: Less than 1% | CRL-8155 EC50 [6]: no detectable toxicity | [compd]brain [7]: 9.07 µM and 9.07 ± 3.973 µM | average plasma level [8]: 9.1 ± 7.6 µM | average plasma level [9]: 15.8 ± 8.7 µM | Cmax, brain [10]: 54.84 ± 4.64 µM | [compd]brain ([10]; 24 h): submicromolar | [compd]plasma ([10]; 24 h, LLQ is 0.010 μM, 50 mg/kg): undetectable

O=C(Nc1ccc2sc(-c3ccc(F)c(F)c3)nc2c1)N1C[C@@H](F)[C@H](F)C1 [Compound 59]
percent of Cmax remaining at the 24 h time point [5]: 34% | percent of Cmax remaining at the 32 h time point [5]: > 17%
